Measurements published in publication PMC10092844, “Inhibition profile of trifludimoxazin towards PPO2 target site mutations” (Pest Management Science, 2022).
Where a chain is given by its changes, count along the chain named.

Tests used:
PPO2 R128N ΔG210 = target: T1, PPO2 R128N ΔG210 (Amaranthus tuberculatus, UniProt Q0NZW9, DEL210-210/R128N); assay: biochemical; format: biochemical
T1 sequence (Q0NZW9 with tags, fused parts or gaps R128N/DEL210-210): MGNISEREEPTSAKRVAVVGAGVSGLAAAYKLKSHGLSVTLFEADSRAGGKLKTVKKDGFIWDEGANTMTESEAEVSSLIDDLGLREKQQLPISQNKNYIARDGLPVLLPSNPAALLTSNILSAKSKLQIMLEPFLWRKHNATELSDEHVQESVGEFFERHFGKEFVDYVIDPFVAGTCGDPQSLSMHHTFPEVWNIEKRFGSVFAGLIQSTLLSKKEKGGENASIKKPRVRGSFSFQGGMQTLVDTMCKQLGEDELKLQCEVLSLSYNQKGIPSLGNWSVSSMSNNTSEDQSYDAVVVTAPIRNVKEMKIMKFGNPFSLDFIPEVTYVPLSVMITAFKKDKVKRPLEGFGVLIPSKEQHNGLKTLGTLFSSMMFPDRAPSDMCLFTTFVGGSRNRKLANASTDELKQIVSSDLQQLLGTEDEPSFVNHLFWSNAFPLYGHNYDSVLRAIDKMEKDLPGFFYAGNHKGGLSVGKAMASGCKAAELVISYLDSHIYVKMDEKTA

PPO2 R128C ΔG210 = target: T2, PPO2 R128C ΔG210 (Amaranthus tuberculatus, UniProt Q0NZW9, DEL210/R128C); assay: biochemical; format: biochemical
T2 sequence (Q0NZW9 with tags, fused parts or gaps R128C/DEL210): T1 sequence (Q0NZW9 with tags, fused parts or gaps R128N/DEL210-210) with N98C

PPO2 ΔG210 = target: T3, PPO2 ΔG210 (Amaranthus tuberculatus, UniProt Q0NZW9, DEL210-210); format: biochemical
T3 sequence (Q0NZW9 with tags, fused parts or gaps DEL210-210): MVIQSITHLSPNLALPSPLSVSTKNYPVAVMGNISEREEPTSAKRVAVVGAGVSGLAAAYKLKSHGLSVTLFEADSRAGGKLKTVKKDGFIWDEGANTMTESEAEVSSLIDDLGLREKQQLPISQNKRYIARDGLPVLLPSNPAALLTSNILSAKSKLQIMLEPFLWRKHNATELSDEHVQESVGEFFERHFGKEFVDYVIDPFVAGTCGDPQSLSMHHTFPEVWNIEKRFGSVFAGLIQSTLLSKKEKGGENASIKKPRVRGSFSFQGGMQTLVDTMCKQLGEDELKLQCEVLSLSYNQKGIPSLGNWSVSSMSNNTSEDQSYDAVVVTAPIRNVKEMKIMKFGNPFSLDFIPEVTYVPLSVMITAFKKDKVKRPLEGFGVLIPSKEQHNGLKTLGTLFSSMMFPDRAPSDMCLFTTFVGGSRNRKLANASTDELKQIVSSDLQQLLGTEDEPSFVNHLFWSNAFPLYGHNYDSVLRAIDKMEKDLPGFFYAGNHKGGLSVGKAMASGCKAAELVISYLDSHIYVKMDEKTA

[1] = target: T4, PPO2 R128C ΔG210 in Escherichia coli hemG (Amaranthus tuberculatus, UniProt Q0NZW9, DEL210/R128C, cells depend on it); format: cell-based; details: read-out: IC50 (E. coli hemG growth)
T4 sequence (Q0NZW9 with tags, fused parts or gaps R128C/DEL210): T1 sequence (Q0NZW9 with tags, fused parts or gaps R128N/DEL210-210) with N98C

[2] = target: T5, PPO2 R128A ΔG210 in Escherichia coli hemG (Amaranthus tuberculatus, UniProt Q0NZW9, DEL210/R128A, cells depend on it); format: cell-based; details: read-out: IC50 (E. coli hemG growth)
T5 sequence (Q0NZW9 with tags, fused parts or gaps R128A/DEL210): T1 sequence (Q0NZW9 with tags, fused parts or gaps R128N/DEL210-210) with N98A

[3] = target: T6, PPO2 R128M ΔG210 in Escherichia coli hemG (Amaranthus tuberculatus, UniProt Q0NZW9, DEL210-210/R128M, cells depend on it); format: cell-based; details: read-out: IC50 (E. coli hemG growth)
T6 sequence (Q0NZW9 with tags, fused parts or gaps R128M/DEL210-210): T1 sequence (Q0NZW9 with tags, fused parts or gaps R128N/DEL210-210) with N98M

PPO2 wild-type = PPO2 wild-type (Amaranthus tuberculatus, UniProt Q0NZW9); assay: in vitro inhibition assay, recombinant PPO2 enzyme; format: biochemical
Chain of PPO2 wild-type (Q0NZW9 entry or part of it): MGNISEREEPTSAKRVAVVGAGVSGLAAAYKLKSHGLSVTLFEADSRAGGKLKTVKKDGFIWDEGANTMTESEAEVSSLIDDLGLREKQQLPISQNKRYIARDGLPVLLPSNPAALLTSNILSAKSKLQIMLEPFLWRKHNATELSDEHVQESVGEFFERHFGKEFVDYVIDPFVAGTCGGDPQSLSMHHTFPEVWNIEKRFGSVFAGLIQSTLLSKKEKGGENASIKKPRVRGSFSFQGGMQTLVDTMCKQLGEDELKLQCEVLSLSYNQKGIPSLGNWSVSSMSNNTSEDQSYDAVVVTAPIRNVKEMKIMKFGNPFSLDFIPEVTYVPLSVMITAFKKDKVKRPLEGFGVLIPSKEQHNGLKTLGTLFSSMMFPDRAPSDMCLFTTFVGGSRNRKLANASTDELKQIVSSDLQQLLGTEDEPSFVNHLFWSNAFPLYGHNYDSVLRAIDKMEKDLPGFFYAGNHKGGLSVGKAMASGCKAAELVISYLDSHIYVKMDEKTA

SMILES	IC50 (PPO2 R128N ΔG210)	IC50 (PPO2 R128C ΔG210)	IC50 (PPO2 ΔG210)	IC50 [1]	IC50 [2]	IC50 [3]	Resistance factor (PPO2 R128N ΔG210)	Resistance factor (PPO2 R128C ΔG210)	Resistance factor (PPO2 wild-type)	Resistance factor (PPO2 ΔG210)
CS(=O)(=O)NC(=O)c1cc(Oc2ccc(C(F)(F)F)cc2Cl)ccc1[N+](=O)[O-] [Fomesafen, fomesafen]	> 10000 nM	> 10000 nM	> 10000 nM	–	–	–	–	–	–	–
CCOC(=O)C(C)OC(=O)c1cc(Oc2ccc(C(F)(F)F)cc2Cl)ccc1[N+](=O)[O-] (stereo not shown) [Lactofen, lactofen]	> 10000 nM	2150 nM	544 nM	> 10000 nM	> 10000 nM	> 10000 nM	–	–	–	–
CC(C)N(C)S(=O)(=O)NC(=O)c1cc(-n2c(=O)cc(C(F)(F)F)n(C)c2=O)c(F)cc1Cl [Saflufenacil, saflufenacil]	> 10000 nM	> 10000 nM	2040 nM	> 10000 nM	> 10000 nM	> 10000 nM	–	–	–	–
C#CCN1C(=O)C(F)(F)Oc2cc(F)c(-n3c(=O)n(C)c(=S)n(C)c3=O)cc21 [Trifludimoxazin, trifludimoxazin]	175 nM	31.1 nM	1.83 nM	46.5 nM	46.5 nM	67.4 nM	714	127	1	7
